Laboratory results reported in patent publication US20250241996A1, “COMBINATORIAL, AND ROTATIONAL COMBINATORIAL THERAPIES” (Starrock Pharma Inc., priority 2022, published 2025).
Values joined by “and” are separate entries in the source; they are usually repeats but may differ in a detail not shown here. Equal values may be shown once. Read-outs that look alike come from different tables or passages of the source.

Experiments:
[1] = Side effects and tolerability during the combinatorial weight loss regimen (Example 2)
Description: Subjects were seen once weekly for the first 4 weeks, and then once every two weeks, for six visits, for a total of 10 visits over 16 weeks. Vital signs and side effects were assessed at each visit.
Subjects were administered or self-administered the medications in the protocol by the appropriate route (i.e., subcutaneous injection or oral tablet/capsule) for […]. Subjects initially were administered a combination of: 1) a GLP-1 agonist (sold under trademarks Trulicity®, B-cise®, Ozempic®, and Victoza®), 2) Phentermine, 3) Liothyronine, 4) topiramate (sold under the trademark Topamax® carbonic anhydrase inhibitor), and 5) Sermorelin. The starting dosages are listed below in Table 17. The dosages were adjusted throughout the treatment period based on the subject response (i.e., weight loss), tolerability, volume of distribution, subject weight, and at the discretion of the treating physician. For example, the dosage of the GLP-1 agonists Trulicity® and Ozempic® was adjusted depending on the response to the medications. The dosage of the Bydureon BCcise® GLP-1 agonist was not adjusted since it is only produced in a 2 mg injectable dose. Phentermine was increased depending on subject response, to, for example, one 37.5 mg tablet in the morning and one-half tablet ([…]) at 2 p.m. […] If no progression was noted on the initial medications listed above, then the following medications were added to the protocol: Acarbose, Januvia® dipeptidyl peptidase-4 (DPP-4) inhibitor, Invokana® sodium-glucose co-transporter 2 (SGLT2) inhibitor, and Farxiga® (dapagliflozin) in the dosages listed in Table 17, below. For example, if weight loss progress was slow and a subject was consuming large amounts of carbohydrate-rich foods, the alpha-glucosidase inhibitor, Acarbose, was added to the regimen. […] This was added in addition to medications i-iv and ix, below. The regimen provided a minimum of four medications, and more medications were added and/or the dosages were modified as required in subsequent visits.
In other examples, the regimen began with administration of medications i-iv and ix and other medications were added; additional medications were administered at week 2 or week 7, for example, if the subject was not responding and needed an extra pharmacological ‘push.’
As noted above, the medication dosages were adjusted throughout the treatment period as needed, and as agreed to between the treating physician and the subject. […] For larger subjects (i.e., starting weight over 300 pounds) who were losing less than 6 pounds per week, medication dosages were increased or additional medications were added to the regimen. The hierarchy of decision making included 1) increase the dosage of the medications to the maximum allowable dosage or to the level of tolerability of the medication; and then 2) add a fifth or sixth medication, as needed to increase weight loss.

[2] = cited from earlier work
[3] = cited from earlier work; remark: listed apart in the source
[4] = cited from earlier work; remark: listed apart in the source
[5] = cited from earlier work; remark: listed apart in the source
[6] = after 36 weeks, cited from earlier work

For `C[C@H]1O[C@H](O[C@H]2[C@H](O)[C@@H](O)[C@@H](O[C@H]3[C@H](O)[C@@H](O)C(O)O[C@@H]3CO)O[C@@H]2CO)[C@H](O)[C@@H](O)[C@@H]1N[C@H]1C=C(CO)[C@@H](O)[C@H](O)[C@H]1O` (some centres unmarked) [Acarbose], the “Side effect(s)” value ([1]; subject 4, dosages of Table 24) was “Mild”.

In the case of `Fc1ccccc1Nc1nc2nonc2nc1Nc1ccccc1F` [BAM15, (2-fluorophenyl){6-[(2-fluorophenyl)amino](1,2,5-oxadiazolo [3,4e]pyrazin-5-yl)}amine], the “diet-induced obesity and insulin resistance” value ([2]; orally administered, mice) is given as “reverses diet-induced obesity and insulin resistance in mice”.

With `CC(NC(C)(C)C)C(=O)c1cccc(Cl)c1` (centres unmarked) [Bupropion] the “Side effect(s)” value ([1]; in vivo) was “None”.

For `O=[N+]([O-])c1ccc(O)c([N+](=O)[O-])c1` [DNP, 2,4-dinitrophenol], the toxicity ([3]; tested clinically) is listed as “limited utility owing to toxicity”.

In the case of `CCN(CC)C(C)C(=O)c1ccccc1` (centres unmarked) [Diethylproprion], the “Side effect(s)” value ([1]; subject 2, dosages of Table 20) is reported as “None”.

For `C[C@H]1CNCCc2ccc(Cl)cc21` [Locasarin], the Weight loss ([4]; Duration 56 weeks) is given as 5.8%.

In the case of `O=C1CC[C@@]2(O)[C@H]3Cc4ccc(O)c5c4[C@@]2(CCN3CC2CC2)[C@H]1O5` [Naltrexone], the “weight loss in monotherapy” value ([3]; human, in vivo) is listed as “does not cause weight loss in monotherapy”.

For `CCCCCCCCCCC[C@@H](C[C@@H]1OC(=O)[C@H]1CCCCCC)OC(=O)[C@H](CC(C)C)NC=O` [Orlistat], the placebo-normalized weight loss ([3]; human, in vivo) is listed as roughly 2.5%, the “>%5 (percent of subjects who lost greater than 5%)” value ([4]; Duration 56 weeks) is listed as 48% and the “>%10 (percent of subjects who lost greater than 10%)” value ([4]; Duration 56 weeks) is listed as 17.9%. For the same molecule, the Weight loss ([4]; Duration 56 weeks) was 6.2% and 4% and 8.5%, the “participants with 5% and more weight loss” value ([4]; Duration 56 weeks) was 48% and the “participants with 10% and more weight loss” value ([4]; Duration 56 weeks) was 17.9%.

For `C[C@H]1[C@H](c2ccccc2)OCCN1C` [Phendimetrazine], the “Side effect(s)” value ([1]; subject 5, dosages of Table 26) was “None”.

For `CC(C)(N)Cc1ccccc1` [Phentermine], the “Side effect(s)” value ([1]; subject 1, dosages of Table 18) was “Dry mouth”, the “Side effect(s)” value ([1]; subject 2, dosages of Table 20) was “Dry mouth” and the “Side effect(s)” value ([1]; subject 3, dosages of Table 22) was “None and Dry mouth”. The “Side effect(s)” value ([1]; subject 4, dosages of Table 24) was “None”, the “Side effect(s)” value ([1]; subject 5, dosages of Table 26) was “None” and the “>%5 (percent of subjects who lost greater than 5%)” value ([4]; Duration 12 weeks) was 95%. For the same molecule, the “>%10 (percent of subjects who lost greater than 10%)” value ([4]; Duration 12 weeks) was 62.5%, the Weight loss ([4]; Duration 12 weeks) was 8% and 7% and the “participants with 5% and more weight loss” value ([4]; Duration 12 weeks) was 95%. The “participants with 10% and more weight loss” value ([4]; Duration 12 weeks) was 62.5%, the Weight loss ([4]; Duration 12 weeks, listed as phentermine) was 8% and 7% and the Weight loss ([4]; Duration 20 weeks) was 9%. The Weight loss ([4]; Duration 28 weeks) was 6%.

For `Cc1c(C(=O)NN2CCCCC2)nn(-c2ccc(Cl)cc2Cl)c1-c1ccc(Cl)cc1` [Rimonabant], the adverse psychiatric effects ([3]; human, in vivo) is listed as “discontinued in 2009 due to serious adverse psychiatric effects” and the placebo-subtracted weight loss ([3]; human, in vivo) is listed as 2.6 to 6.3 kg.

In the case of `CCOC[C@@H]1[C@@H](c2ccc(Cl)c(Cl)c2)C[C@@H]2CC[C@H]1N2C` [Tesofensine], the “decrease of body weight” value ([3]; phase II study, dose-dependent) is listed as 4.4-10.4%.

In the case of `CC1(C)O[C@@H]2[C@@H](CO[C@@]3(COS(N)(=O)=O)OC(C)(C)O[C@@H]23)O1` [Topiramate], the “tolerability within the regimen” value ([1]; in vivo) is reported as “the least tolerated, and was discontinued in some cases”.

With `CC[C@H](C)[C@H](NC(=O)[C@H](Cc1ccccc1)NC(=O)[C@H](CCC(=O)O)NC(=O)[C@H](CCCCNC(=O)COCCOCCNC(=O)COCCOCCNC(=O)CC[C@H](NC(=O)CCCCCCCCCCCCCCCCC(=O)O)C(=O)O)NC(=O)[C@H](C)NC(=O)[C@H](C)NC(=O)[C@H](CCC(N)=O)NC(=O)CNC(=O)[C@H](CCC(=O)O)NC(=O)[C@H](CC(C)C)NC(=O)[C@H](Cc1ccc(O)cc1)NC(=O)[C@H](CO)NC(=O)[C@H](CO)NC(=O)[C@@H](NC(=O)[C@H](CC(=O)O)NC(=O)[C@H](CO)NC(=O)[C@@H](NC(=O)[C@H](Cc1ccccc1)NC(=O)[C@@H](NC(=O)CNC(=O)[C@H](CCC(=O)O)NC(=O)C(C)(C)NC(=O)[C@@H](N)Cc1cnc[nH]1)[C@@H](C)O)[C@@H](C)O)C(C)C)C(=O)N[C@@H](C)C(=O)N[C@@H](Cc1c[nH]c2ccccc12)C(=O)N[C@@H](CC(C)C)C(=O)N[C@H](C(=O)N[C@@H](CCCNC(=N)N)C(=O)NCC(=O)N[C@@H](CCCNC(=N)N)C(=O)NCC(=O)O)C(C)C` [semaglutide] the “Side effect(s)” value ([1]; in vivo) was “constipation”.

For `CC[C@H](C)[C@H](NC(=O)[C@H](C)NC(=O)[C@H](CC(=O)O)NC(=O)[C@H](C)NC(=O)[C@@H](N)Cc1ccc(O)cc1)C(=O)N[C@@H](Cc1ccccc1)C(=O)N[C@H](C(=O)N[C@@H](CC(N)=O)C(=O)N[C@@H](CO)C(=O)N[C@@H](Cc1ccc(O)cc1)C(=O)N[C@@H](CCCNC(=N)N)C(=O)N[C@@H](CCCCN)C(=O)N[C@H](C(=O)N[C@@H](CC(C)C)C(=O)NCC(=O)N[C@@H](CCC(N)=O)C(=O)N[C@@H](CC(C)C)C(=O)N[C@@H](CO)C(=O)N[C@@H](C)C(=O)N[C@@H](CCCNC(=N)N)C(=O)N[C@@H](CCCCN)C(=O)N[C@@H](CC(C)C)C(=O)N[C@@H](CC(C)C)C(=O)N[C@@H](CCC(N)=O)C(=O)N[C@@H](CC(=O)O)C(=O)N[C@H](C(=O)N[C@@H](CCSC)C(=O)N[C@@H](CO)C(=O)N[C@@H](CCCNC(=N)N)C(N)=O)[C@@H](C)CC)C(C)C)[C@@H](C)O` [sermorelin], the “Side effect(s)” value ([1]; in vivo) was “None”.

In the case of “Novo Nordisk Wegovy ™ semaglutide weight loss medication”, the “12 weeks % weight change” value ([5]; Wegovy Study 1, baseline mean body weight 105.4 kg) is given as −6%, the “36 weeks % weight change” value ([5]; Wegovy Study 1) is given as −12% and the “12 weeks % weight change” value ([5]; Wegovy Study 2, baseline mean body weight 99.9 kg) is given as −4.5%. For the same molecule, the “36 weeks % weight change” value ([5]; Wegovy Study 2) was −9%, the “12 weeks % weight change” value ([5]; Wegovy Study 3, baseline mean body weight 106.9 kg) was −7% and the “36 weeks % weight change” value ([5]; Wegovy Study 3) was −13%. The “12 weeks % weight change” value ([5]; Wegovy Study 4, baseline mean body weight 107.2 kg) was −5.5% and the “36 weeks % weight change” value ([5]; Wegovy Study 4) was −12%.

In the case of dulaglutide, the average weight lost ([6]; 1.5 mg once weekly with ≥1500 mg/day metformin) is listed as 6.6 pounds, the average weight lost ([6]; 3.0 mg once weekly with ≥1500 mg/day metformin) is listed as 8.4 pounds and the average weight lost ([6]; 4.5 mg once weekly with ≥1500 mg/day metformin) is listed as 1.1 pounds. For the same molecule, the “Side effect(s)” value ([1]; in vivo) was “constipation”.

For “leptin: 167 amino acid hormone (SEQ ID NO:3)”, the “lowering of body weight by supplementation” value ([3]; obese individuals) is given as “has not been shown to be effective to lower body weight in obese individuals”.

B1: recombinant GDF15: Macrophage inhibitory cytokine 1 (SEQ ID NO:33) (protein, listed as Homo sapiens)
chain: MPGQELRTVNGSQMLLVLLVLSWLPHGGALSLAEASRASFPGPSELHSEDSRFRELRKRYEDLLTRLRANQSWEDSNTDLVPAPAVRILTPEVRLGSGGHLHLRISRAALPEGLPEASRLHRALFRLSPTASRSWDVTRPLRRQLSLARPQAPALHLRLSPPPSQSDQLLAESSSARPQLELHLRPQAARGRRRARARNGDHCPLGPGRCCRLHTVRASLEDLGWADWVLSPREVQVTMCIGACPSQFRAANMHAQIKTSLHRLKPDTVPAPCCVPASYNPMVLIQKTDTGVSLQTYDDLLAKDCHCI
modifications: Macrophage inhibitory cytokine 1 (MIC1 or GDF15)
For B1, the body weight ([2]; exogenous administration, diet-induced obese mice and non-human primates) is given as “decreases body weight in diet-induced obese mice and non-human primates”.
